In patent US9518994B2, “Method for diagnosing and monitoring schizophrenia and tauopathies” (Ramot at Tel Aviv University, priority 2010, dated 2016):

Legend:
β-tubulin = conditions: NAP affinity columns; cited from earlier work
[1] = tested on: cerebellar granule neurons; conditions: cited from earlier work
P19 cells = experiment: P19 cell neuro-differentiation, Q-PCR of differentiation markers; type: cell-based, mouse; conditions: eight days differentiation, 1 μM RA; FIG. 2
Protocol: Mouse Embryonic teratocarcinoma cells were obtained from the American Type Culture Collection (ATCC, Bethesda, Md.); an initial control batch was a kind gift of Dr. Roi Atlas and Professor Irith Ginzburg, the Weizmann Institute of Science, Rehovot, Israel. P19 cells were grown in minimal essential medium (alpha-MEM) containing 5% fetal calf serum, 100 U/ml penicillin and 0.1 mg/ml streptomycin (Biological Industries, Beit Haemek, Israel) in a 5% CO2 incubator at 37° C. […]
Samples with same amount of total RNA were used to synthesize single-strand cDNA with SuperScript […] RNase H Reverse Transcriptase (Invitrogen, Carlsbad, Calif., USA) and a random hexamers adaptor primer according to the manufacturer's instructions. […] ADNP and ADNP2 expression levels in Schizophrenia were determined using specific primers for human ADNP and ADNP2, and normalized to TATA box binding protein. […] RNA from non-differentiated and differentiated P19 cells was isolated and the expression of tubulin β3 and glial fibrillary acidic protein (GFAP) was determined to confirm neuronal differentiation. ADNP and ADNP2 expression levels in P19 cells were determined using specific primers for mouse ADNP and ADNP2. […] The efficiencies of all primers used were calculated as a precursory step using standard curves, according to the equation: E (efficiency)=10^(−1/slope)−1×100 and were near 100% for all primers. […]

ADNP [2] = experiment: Transgene shutoff by doxycycline in rTg(tau(P301L))4510 mice, western blots; type: in vivo, mouse; conditions: treated with doxycycline; untreated ratio is 3; FIG. 3D
Protocol: Nuclear ADNP expression was assessed using mouse monoclonal antibody directed against ADNP (1:300 dilution; BD Bioscience) at 150 KD, actin was used as a control. […] C. […] Tau expression was measured in the cytoplasmic fraction; ADNP was measured in nuclear fractions. D. Western blots showing expression level of ADNP in transgenic and non-transgenic mice after doxycycline treatment.

ADNP [3] = conditions: 120 min 75% xenon and 25% oxygen vs 75% nitrogen and 25% oxygen; RT-PCR, western blot, immunohistochemistry; cited from earlier work
[4] = tested on: known cell surface receptors; experiment: Screening NAP on receptor panels; type: binding
Protocol: Fluorescent NAP was found inside cells, in the vicinity of microtubules when it was incubated with cells at 4° C. and at low pH (conditions that exclude receptor-mediated endocytocis) (I. Divinski et al. J Biol Chem 279, 28531-28538 (2004)). Furthermore, NAP activity is independent of its chirality (D. E. Brenneman et al. J Pharmacol Exp Ther 309, 1190-1197 (2004)) and NAP shares sequence similarities with protein sequences that have membrane permeability properties (I. Divinski et al. J Biol Chem 279, 28531-28538 (2004)).

phosphorylated tau = conditions: 12-month-old mice, intranasal ~0.07 mg/kg/day for 3 months; cited from earlier work
[5] = tested on: schizophrenia-related cognitive impairment; conditions: 5 mg once daily and 15 mg twice daily vs placebo, 56 patients; cited from earlier work
ADNP+/- mice = conditions: cited from earlier work
STOP+/- mice = conditions: daily nasal application; cited from earlier work
anti-ADNP (NAP) antibody = conditions: incubation of antibody with excess NAP peptide; cited from earlier work
tau transgenic mice = conditions: daily intranasal treatment over several months; cited from earlier work
cancer cell division = conditions: unlike paclitaxel; cited from earlier work
astrocytes or neurons = conditions: cited from earlier work
[6] = tested on: Cortical neurons co-cultured with PEE astrocytes; conditions: cited from earlier work
[7] = tested on: gestational day 8.0 mouse embryos; conditions: cited from earlier work
[8] = tested on: primary neuronal cell cultures; conditions: cited from earlier work
amnestic MCI = conditions: 15 mg twice daily, intranasal, vs placebo; cited from earlier work
cell cultures = conditions: cited from earlier work

Molecule: CC(=O)O[C@H]1C(=O)[C@@]2(C)[C@H]([C@H](OC(=O)c3ccccc3)[C@]3(O)C[C@H](OC(=O)[C@H](O)[C@@H](NC(=O)c4ccccc4)c4ccccc4)C(C)=C1C3(C)C)[C@]1(OC(C)=O)CO[C@@H]1C[C@@H]2O [paclitaxel]
- NAP-tubulin interaction (β-tubulin): reduced

Molecule: CCO [ethanol]
- IC50 ([1]; by inhibiting NAP activation of Fyn kinase and Cas, read-out: IC(50), block of NAP-mediated axon outgrowth): 17 mM

Molecule: CC1=C(/C=C/C(C)=C/C=C/C(C)=C/C(=O)O)C(C)(C)CCC1 [RA, all-trans retinoic acid]
- glial fibrillar acidic protein (GFAP) expression, Q-PCR (P19 cells): up-regulation
- tubulinβ3 expression, Q-PCR (P19 cells): up-regulation

Molecule: C[C@H]1c2cccc(O)c2C(=O)C2=C(O)[C@]3(O)C(=O)C(C(N)=O)=C(O)[C@@H](N(C)C)[C@@H]3[C@@H](O)[C@@H]21 [doxycycline]
- ADNP protein expression ratio between the Tg and non-Tg mice (ADNP [2]): 1

Molecule: [Xe] [xenon]
- ADNP expression in neonatal rat brain (ADNP [3]): differentially expressed

Molecule: CC[C@H](C)[C@H](NC(=O)[C@H](CO)NC(=O)[C@@H](NC(=O)[C@@H]1CCCN1C(=O)[C@H](C)NC(=O)[C@@H](N)CC(N)=O)C(C)C)C(=O)N1CCC[C@H]1C(=O)N[C@@H](CCC(N)=O)C(=O)O [NAP, Asn-Ala-Pro-Val-Ser-Ile-Pro-Gln]
- binding to known cell surface receptors [4]: did not reveal any significant binding
- decrease in phosphorylated tau at Ser202/Thr205 and Thr231 residues (phosphorylated tau): 70%
- axon outgrowth ([1]; cerebellar granule neurons, via Fyn kinase and Cas phosphorylation): potentiated axon outgrowth
- UCSD Performance-based Skills Assessment (UPSA) test, secondary endpoint [5]: statistically significant positive treatment effect
- tests that measured visual learning and working memory [5]: Numerical positive treatment effects
- verbal learning [5]: favoring placebo
- cognitive deficits (ADNP+/- mice; 0.5 μg/mouse/day): partially ameliorated
- tau hyperphosphorylation (ADNP+/- mice; 0.5 μg/mouse/day): reduced
- amount of active GSK-3β (ADNP+/- mice; NAP treatment): reduced
- object recognition (STOP+/- mice): significantly improved to STOP+/+ performance level
- open field locomotor activity (STOP+/- mice): significantly decreased
- spatial memory (STOP+/- mice): ameliorated
- reduction of fluorescence staining (anti-ADNP (NAP) antibody): > 80%
- short-term memory (tau transgenic mice): improving
- tau phosphorylation and "NFTs" (tau transgenic mice): reduced
- cancer cell division (cancer cell division): does not affect
- microtubule depolymerization by nocodazole (astrocytes or neurons; neurons): reversed
- tubulin zinc sheet formation and cell death (astrocytes or neurons; treatment with zinc chloride): protected
- dendritic and axonal growth or branching, density of synaptic structures ([6]; SNAP-25 and synaptophysin staining): significantly increased
- CREB phosphorylation [6]: increase
- activity of ERK and Akt ([6]; time-dependent): significantly stimulated
- percentage of embryos that had begun to close their neural folds ([7]; co-incubation with ethanol and NAP): significantly increased
- alcohol-induced serotonergic loss during brain development ([7]; in vivo, caudal raphe): protected
- neurite outgrowth [8]: induced neurite outgrowth
- cognitive tests that primarily assessed attention and working memory function (amnestic MCI): general pattern of improvement

B1: recombinant ADNP: recombinant activity-dependent neuroprotective protein (protein, UniProt Q9H2P0 1-1102, looked up)
Activity-dependent …: MFQLPVNNLGSLRKARKTVKKILSDIGLEYCKEHIEDFKQFEPNDFYLKNTTWEDVGLWDPSLTKNQDYRTKPFCCSACPFSSKFFSAYKSHFRNVHSEDFENRILLNCPYCTFNADKKTLETHIKIFHAPNASAPSSSLSTFKDKNKNDGLKPKQADSVEQAVYYCKKCTYRDPLYEIVRKHIYREHFQHVAAPYIAKAGEKSLNGAVPLGSNAREESSIHCKRCLFMPKSYEALVQHVIEDHERIGYQVTAMIGHTNVVVPRSKPLMLIAPKPQDKKSMGLPPRIGSLASGNVRSLPSQQMVNRLSIPKPNLNSTGVNMMSSVHLQQNNYGVKSVGQGYSVGQSMRLGLGGNAPVSIPQQSQSVKQLLPSGNGRSYGLGSEQRSQAPARYSLQSANASSLSSGQLKSPSLSQSQASRVLGQSSSKPAAAATGPPPGNTSSTQKWKICTICNELFPENVYSVHFEKEHKAEKVPAVANYIMKIHNFTSKCLYCNRYLPTDTLLNHMLIHGLSCPYCRSTFNDVEKMAAHMRMVHIDEEMGPKTDSTLSFDLTLQQGSHTNIHLLVTTYNLRDAPAESVAYHAQNNPPVPPKPQPKVQEKADIPVKSSPQAAVPYKKDVGKTLCPLCFSILKGPISDALAHHLRERHQVIQTVHPVEKKLTYKCIHCLGVYTSNMTASTITLHLVHCRGVGKTQNGQDKTNAPSRLNQSPSLAPVKRTYEQMEFPLLKKRKLDDDSDSPSFFEEKPEEPVVLALDPKGHEDDSYEARKSFLTKYFNKQPYPTRREIEKLAASLWLWKSDIASHFSNKRKKCVRDCEKYKPGVLLGFNMKELNKVKHEMDFDAEWLFENHDEKDSRVNASKTADKKLNLGKEDDSSSDSFENLEEESNESGSPFDPVFEVEPKISNDNPEEHVLKVIPEDASESEEKLDQKEDGSKYETIHLTEEPTKLMHNASDSEVDQDDVVEWKDGASPSESGPGSQQVSDFEDNTCEMKPGTWSDESSQSEDARSSKPAAKKKATMQGDREQLKWKNSSYGKVEGFWSKDQSQWKNASENDERLSNPQIEWQNSTIDSEDGEQFDNMTDGVAEPMHGSLAGVKLSSQQA
- protection against severe oxidative stress and Aβ toxicity (cell cultures): potent protection
